# Test results reported in patent publication US12661410B2, “Compounds for targeted degradation of RET” (C4 Therapeutics, Inc., priority 2020, dated 2026).
# Residue numbers refer to the chain shown, from its start.
# Assays:
# RET (658-1114) = target: T1, RET (658-1114) (Homo sapiens, UniProt P07949); assay: HiBiT-Degradation, RET wild-type degradation assay (Nano-Glo HiBiT Lytic), 293T.144 cells; format: cell-based; conditions: for Emax / DC50: 6.0 hours; for Emax: % remaining protein, read-out: 293T.144 RET (658-1114) 6.0 hours (Emax); for DC50: half-maximal degradation concentration, read-out: 293T.144 RET (658-1114) 6.0 hours (DC50)
# T1 construct: 658-1114; expressed in transfected cells; host or cells: 293T.144 (293T cells, generated in-house)
# T1 sequence (P07949 658-1114): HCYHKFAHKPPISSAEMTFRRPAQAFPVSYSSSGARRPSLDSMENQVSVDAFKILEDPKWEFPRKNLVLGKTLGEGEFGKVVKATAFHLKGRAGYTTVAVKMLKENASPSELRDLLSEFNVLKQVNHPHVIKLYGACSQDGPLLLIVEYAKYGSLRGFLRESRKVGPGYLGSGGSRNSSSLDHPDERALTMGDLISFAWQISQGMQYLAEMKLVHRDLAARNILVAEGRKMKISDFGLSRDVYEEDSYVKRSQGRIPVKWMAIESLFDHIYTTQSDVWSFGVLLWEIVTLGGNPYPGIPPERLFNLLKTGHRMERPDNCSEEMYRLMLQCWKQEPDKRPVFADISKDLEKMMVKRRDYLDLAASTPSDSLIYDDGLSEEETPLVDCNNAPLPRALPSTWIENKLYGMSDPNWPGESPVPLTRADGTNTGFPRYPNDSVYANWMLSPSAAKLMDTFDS
# How it was run: (§1)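 6 h treatment, 293T.144 (WT) / 293T.165 (G810R) cells ectopically expressing HiBiT-fused RET KD; 11-pt half-log dilution, top 10 μM, n=2. Nano-Glo HiBiT lytic detection, luminescence. Output: DC50, Emax (% protein remaining).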
# RET(KD: 658-1114 G810R) = target: T2, RET(KD: 658-1114 G810R) (Homo sapiens, UniProt P07949, G810R); assay: HiBiT-Degradation, RET G810R degradation assay (Nano-Glo HiBiT Lytic), 293T.165 cells; format: cell-based; conditions: for Emax / DC50: 6.0 hours; for Emax: % remaining protein, read-out: 293T.165 RET(KD: 658-1114 G810R) 6.0 hours (Emax); for DC50: half-maximal degradation concentration, read-out: 293T.165 RET(KD: 658-1114 G810R) 6.0 hours (DC50)
# T2 construct: 658-1114; expressed in transfected cells; host or cells: 293T.165 (293T cells, generated in-house)
# T2 sequence (P07949 658-1114 G810R): T1 sequence (P07949 658-1114) with G153R
# How it was run: as §1
SMILES,293T.144 RET (658-1114) 6.0 hours (IP) [nM] (RET (658-1114)),Emax (RET (658-1114)),DC50 (RET (658-1114)),293T.165 RET(KD: 658-1114 G810R) 6.0 hours (IP) [nM] (RET(KD: 658-1114 G810R)),Emax (RET(KD: 658-1114 G810R)),DC50 (RET(KD: 658-1114 G810R))
"N#Cc1cnn2cc(-c3cnn([C@H]4CC[C@H](N5CCC(c6ccc(N[C@H]7CCC(=O)NC7=O)cc6F)CC5)CC4)c3)nc(-c3ccc(N4CCC5(CC4)OCc4cccnc45)nc3)c12 (single isomer, unassigned) [Compound 179]",++++ (<50 nM = ++++),< 30%,< 50 nM,++++ (<50 nM = ++++),< 30%,< 50 nM
"CCC1(C(=O)NC2CCCC2)CCN(c2ccc(-c3nc(-c4cnn([C@H]5CC[C@H](N6CCC(c7ccc(N[C@H]8CCC(=O)NC8=O)cc7F)CC6)CC5)c4)cn4ncc(C#N)c34)cn2)CC1 [Compound 141, 1-[5-[3-cyano-6-[1-[4-[4-[4-[[(3S)-2,6-dioxo-3-piperidyl]amino]-2-fluoro-phenyl]-1-piperidyl]cyclohexyl]pyrazol-4-yl]pyrazolo[1,5-a]pyrazin-4-yl]-2-pyridyl]—N-cyclopentyl-4-ethyl-piperidine-4-carboxamide]",++++ (<50 nM = ++++),< 30%,< 50 nM,++++ (<50 nM = ++++),< 30%,< 50 nM
"CCC1(C(=O)NC(C)C)CCN(c2ccc(-c3nc(-c4cnn(C5CCN(C(=O)CN6C7CCC6CC(c6ccc(NC8CCC(=O)NC8=O)cc6F)C7)CC5)c4)cn4ncc(C#N)c34)cn2)CC1 (stereo not drawn) [Compound 94, 1-[5-[3-cyano-6-[1-[1-[2-[3-[4-[(2,6-dioxo-3-piperidyl)amino]-2-fluoro-phenyl]-8-azabicyclo[3.2.1]octan-8-yl]acetyl]-4-piperidyl]pyrazol-4-yl]pyrazolo[1,5-a]pyrazin-4-yl]-2-pyridyl]-4-ethyl-N-isopropyl-piperidine-4-carboxamide]",++++ (<50 nM = ++++),< 30%,< 50 nM,++++ (<50 nM = ++++),< 30%,< 50 nM
"N#Cc1cnn2cc(-c3cnn(C4CCN(C(=O)CC5(O)CCN(c6ccc(NC7CCC(=O)NC7=O)cc6F)CC5)CC4)c3)cc(-c3ccc(N4CCC(c5cccc(O)c5)CC4)nc3)c12 (stereo not drawn) [Compound 198, 6-[1-[1-[2-[1-[4-[(2,6-dioxo-3-piperidyl)amino]-2-fluoro-phenyl]-4-hydroxy-4-piperidyl]acetyl]-4-piperidyl]pyrazol-4-yl]-4-[6-[4-(3-hydroxyphenyl)-1-piperidyl]-3-pyridyl]pyrazolo[1,5-a]pyridine-3-carbonitrile]",++++ (<50 nM = ++++),< 30%,< 50 nM,++++ (<50 nM = ++++),< 30%,< 50 nM
"CCC1(C(=O)NC(C)(C)C)CCN(c2ccc(-c3nc(-c4cnn(C5CCN(C(=O)CC6(O)CCN(c7ccc(NC8CCC(=O)NC8=O)cc7F)CC6)CC5)c4)cn4ncc(C#N)c34)cn2)CC1 (stereo not drawn) [Compound 103, N-tert-butyl-1-[5-[3-cyano-6-[1-[1-[2-[1-[4-[(2,6-dioxo-3-piperidyl)amino]-2-fluoro-phenyl]-4-hydroxy-4-piperidyl]acetyl]-4-piperidyl]pyrazol-4-yl]pyrazolo[1,5-a]pyrazin-4-yl]-2-pyridyl]-4-ethyl-piperidine-4-carboxamide]",++++ (<50 nM = ++++),< 30%,< 50 nM,++++ (<50 nM = ++++),< 30%,< 50 nM
"N#Cc1cnn2cc(-c3cnn([C@H]4CC[C@H](N5CCN(c6ccc(N[C@@H]7CCC(=O)NC7=O)cc6F)CC5)CC4)c3)nc(-c3ccc(N4CC5COCC(C4)N5Cc4ccccn4)nc3)c12 (single isomer, unassigned) [Compound 156]",++++ (<50 nM = ++++),< 30%,< 50 nM,++++ (<50 nM = ++++),< 30%,< 50 nM
"COc1ccc(CN2C3COCC2CN(c2ccc(-c4nc(-c5cnn([C@H]6CC[C@H](N7CCN(c8cc(OC)c(NC9CCC(=O)NC9=O)cc8F)CC7)CC6)c5)cn5ncc(C#N)c45)cn2)C3)cn1 (stereo partly drawn) [Compound 165, 6-[1-[4-[4-[4-[(2,6-dioxo-3-piperidyl)amino]-2-fluoro-5-methoxy-phenyl]piperazin-1-yl]cyclohexyl]pyrazol-4-yl]-4-[6-[9-[(6-methoxy-3-pyridyl)methyl]-3-oxa-7,9-diazabicyclo[3.3.1]nonan-7-yl]-3-pyridyl]pyrazolo[1,5-a]pyrazine-3-carbonitrile]",++++ (<50 nM = ++++),< 30%,< 50 nM,+++ (<100 nM = +++),< 30%,< 100 nM
"CCC1(C(=O)NC[C@H]2C[C@H](F)C2)CCN(c2ccc(-c3nc(-c4cnn([C@H]5CC[C@H](N6CCN(c7ccc(NC8CCC(=O)NC8=O)cc7F)CC6)CC5)c4)cn4ncc(C#N)c34)cn2)CC1 (stereo partly drawn) [Compound 207, 1-[5-[3-cyano-6-[1-[4-[4-[4-[(2,6-dioxo-3-piperidyl)amino]-2-fluoro-phenyl]piperazin-1-yl]cyclohexyl]pyrazol-4-yl]pyrazolo[1,5-a]pyrazin-4-yl]-2-pyridyl]-4-ethyl-N-[(3-fluorocyclobutyl)methyl]piperidine-4-carboxamide]",++++ (<50 nM = ++++),< 30%,< 50 nM,++++ (<50 nM = ++++),< 30%,< 50 nM
"N#Cc1cnn2cc(-c3ccc(C4CCN(C(=O)CC5(O)CCN(c6ccc(NC7CCC(=O)NC7=O)cc6F)CC5)CC4)cc3)nc(-c3ccc(N4CCN(C(=O)c5ccon5)CC4)nc3)c12 (stereo not drawn) [Compound 175, 6-[4-[1-[2-[1-[4-[(2,6-dioxo-3-piperidyl)amino]-2-fluoro-phenyl]-4-hydroxy-4-piperidyl]acetyl]-4-piperidyl]phenyl]-4-[6-[4-(isoxazole-3-carbonyl)piperazin-1-yl]-3-pyridyl]pyrazolo[1,5-a]pyrazine-3-carbonitrile]",++++ (<50 nM = ++++),< 30%,< 50 nM,++++ (<50 nM = ++++),< 50%,< 100 nM
"CC(C)(C)OC(=O)N1[C@@H]2COC[C@H]1CN(c1ccc(-c3nc(-c4cnn([C@H]5CC[C@@H](N6CCN(c7ccc(NC8CCC(=O)NC8=O)cc7F)CC6)CC5)c4)cn4ncc(C#N)c34)cn1)C2 (single isomer, unassigned) [Compound 159]",++++ (<50 nM = ++++),< 30%,< 50 nM,++++ (<50 nM = ++++),< 30%,< 50 nM
